Measured values: patent US20230124361A1, “SMALL MOLECULE STING ANTAGONISTS” (CURADEV PHARMA PVT. LTD., priority 2020, published 2023)

target: T1, STING (Homo sapiens, UniProt Q86WV6, G230A/H232R/R293Q/R71H); test: Reporter gene expression assay in THP1-Dual cells (IRF pathway Lucia luciferase, 2',3'-cGAMP stimulation); assay type: cell-based; conditions: 10 min preincubation, 5 μM 2',3'-cGAMP, 20 hr, IRF reporter QUANTI-Luc, read-out: THP-1 (HAQ) Activity
T1 construct: host or cells: THP1-Dual cells (human THP-1 monocyte line with Lucia/SEAP reporters)
Procedure, shortened: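 THP1-Dual cells preincubated 10 min with compound, then stimulated with 5 μM 2′,3′-cGAMP for 20 hr. Secreted Lucia luciferase (IRF reporter) measured in supernatant by luminescence; IC50 reported as ranges (A ≤1 μM, B >1–≤10 μM, C >10 μM).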

T1 sequence (Q86WV6 whole entry R71H/G230A/H232R/R293Q): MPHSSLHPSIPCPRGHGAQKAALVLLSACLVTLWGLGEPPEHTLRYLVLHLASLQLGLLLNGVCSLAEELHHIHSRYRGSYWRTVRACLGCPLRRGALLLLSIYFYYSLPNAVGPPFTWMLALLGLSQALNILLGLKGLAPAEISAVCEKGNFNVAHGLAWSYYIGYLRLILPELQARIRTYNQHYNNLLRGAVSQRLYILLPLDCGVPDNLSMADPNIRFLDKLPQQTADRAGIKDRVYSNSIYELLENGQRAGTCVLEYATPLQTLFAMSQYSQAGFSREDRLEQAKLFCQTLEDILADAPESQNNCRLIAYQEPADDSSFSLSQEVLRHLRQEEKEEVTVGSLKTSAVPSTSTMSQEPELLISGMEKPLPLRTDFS

CS(=O)(=O)c1cc(Cl)ccc1CN1C(=O)COc2cc(NC(=O)Nc3ccc4cc[nH]c4c3)ccc21 [Example 122, 1-(4-(4-chloro-2-(methylsulfonyl)benzyl)-3-oxo-3,4-dihydro-2H-benzo[b][1,4]oxazin-7-yl)-3-(1H-indol-6-yl)urea] and O=C(Nc1ccc2c(c1)OCC(=O)N2Cc1ccc(F)c(Cl)c1)Nc1ccc2cc[nH]c2c1 [Example 111, 1-(4-(3-chloro-4-fluorobenzyl)-3-oxo-3,4-dihydro-2H-benzo[b][1,4]oxazin-7-yl)-3-(1H-indol-6-yl)urea] fall in the same range of IC50: 1 to 10 µM for the first, 1 to 10 µM for the second.

First: O=C(Nc1ccc2c(c1)OCC(=O)N2Cc1c(F)cccc1F)Nc1ccc2cc[nH]c2c1 [Example 96, 1-(4-(2,6-difluorobenzyl)-3-oxo-3,4-dihydro-2H-benzo [b][1, 4]oxazin-7-yl)-3-(1H-indol-6-yl)urea]
Second: O=C(Nc1ccc2c(c1)OCC(=O)N2Cc1c(F)cccc1Cl)Nc1ccc2cc[nH]c2c1 [Example 93, l-(4-(2-chloro-6-fluorobenzy 1)-3-oxo-3,4-dihydro-2H-benzo[b][i, 4]oxazin-7-yl)-3-(1H-indol-6-yl)urea]
The IC50 of the first is higher: > 10 µM for the first, 1 to 10 µM for the second. The second is the more potent here.

CN(C(=O)Nc1ccc2c(c1)N(Cc1ccccc1)C(=O)CS2)c1ccc2cc[nH]c2c1 [Example 59, 3-(4-benzyl-3-oxo-3,4-dihydro-2H-benzo[b][1, 4]thiazin-6-yl)-l-(1H-indol-6-yl)-1-methylurea] and CN(C(=O)Nc1ccc2cc[nH]c2c1)c1ccc2c(c1)N(Cc1ccccc1)CCO2 [Example 178, 1-(4-benzyl-3,4-dihydro-2H-benzo[b][1, 4]oxazin-6-yl)-3-(1H-indol-6-yl)-1-methylurea] fall in the same range of IC50: 1 to 10 µM for the first, 1 to 10 µM for the second.

O=C(Nc1ccc2c(c1)OCC(=O)N2Cc1ccc(OC(F)(F)F)c(Cl)c1)Nc1ccc2cc[nH]c2c1 [Example 107, 1-(4-(3-chloro-4-(trifluoromethoxy)benzyl)-3-oxo-3,4-dihydro-2H-benzo[b][1,4]oxazin-7-yl)-3-(1H-indol-6-yl)urea] and COc1ccc(OC)c(CN2C(=O)COc3cc(NC(=O)Nc4ccc5cc[nH]c5c4)ccc32)c1 [Example 115, 1-(4-(2,5-dimethoxybenzyl)-3-oxo-3,4-dihydro-2H-benzo[b][1,4]oxazin-7-yl)-3-(1H-indol-6-yl)urea] cannot be ordered by IC50: ≤ 1 µM for the first, 1 to 10 µM for the second.

First: O=C(Nc1ccc2c(c1)N(C(=O)c1ccccc1)CCS2)Nc1ccc2cc[nH]c2c1 [Example 57, 1-(4-benzoyl-3,4-dihydro-2H-benzo[b][1, 4]thiazin-6-yl)-3-(1H-indol-6-yl)urea]
Second: O=C(Nc1ccc2c(c1)N(c1ccccc1)CCO2)Nc1ccc2cc[nH]c2c1 [Example 184, 1-(1H-indol-6-yl)-3-(4-phenyl-3,4-dihydro-2H-benzo[b][1,4]oxazin-6-yl)urea]
The IC50 of the first is higher: > 10 µM for the first, 1 to 10 µM for the second. The second is the more potent here.

O=C(Nc1ccc2c(c1)OCC(=O)N2Cc1cnccn1)Nc1ccc2cc[nH]c2c1 [Example 154, 1-(1H-indol-6-yl)-3-(3-oxo-4-(pyrazin-2-ylmethyl)-3,4-dihydro-2H-benzo[b][i, 4]oxazin-7-yl)urea] and O=C(Nc1ccc2c(c1)OCC(=O)N2Cc1nnco1)Nc1ccc2cc[nH]c2c1 [Example 151, 1-(4-((1,3,4′-oxadiazol-2-yl)methyl)-3-oxo-3,4-dihydro-2H-benzo[b][1, 4]oxazin-7-yl)-3-(1H-indol-6-yl)urea] cannot be ordered by IC50: > 10 µM for the first, > 10 µM for the second.

O=C(Nc1ccc2c(c1)N(Cc1ccccc1)CCO2)Nc1ccc2cc[nH]c2n1 [Example 172, 1-(4-benzyl-3,4-dihydro-2H-benzo[b][1, 4]oxazin-6-yl)-3-(1H-pyrrolo[2,3-b]pyridin-6-yl)urea] and Cc1cc(CN2C(=O)CSc3ccc(NC(=O)Nc4ccc5cc[nH]c5c4)cc32)ccn1 [Example 60] fall in the same range of IC50: 1 to 10 µM for the first, 1 to 10 µM for the second.

For O=C(Nc1ccc2c(c1)N(CC1CC1)CCS2)Nc1ccc2cc[nH]c2c1 [Example 65, 1-(4-(cyclopropyl-methyl)-3,4-dihydro-2H-benzo[b][1, 4]thiazin-6-yl)-3-(1H-indol-6-yl)urea], the IC50 was ≤ 1 µM.
